# Patent US20260184675A1, “CHIRAL ISOMERIC SULFITE COMPOUND AND APPLICATION THEREOF” (Chengdu Hanova BioSciences Co., Ltd, priority 2024, published 2026)
# Several values for one entry are separate records, joined by “and”; a condition that tells them apart may be missing. Equal values may be shown once.
# Key:
# Magnaporthe grisea = format: cell-based; conditions: 100 ppm; for Average antifungal rate (%) / Antifungal rate of Magnaporthe grisea (%), Replicate 1 / Antifungal rate of Magnaporthe grisea (%), Replicate 2 / Antifungal rate of Magnaporthe grisea (%), Replicate 3: 96-well plate; for Average antifungal rate (%): average of 3 replicates
# [1] = system: eggs of Spodoptera litura; experiment: Effect on hatching of eggs of Spodoptera litura, egg piece soaking; format: in vivo; conditions: 500 ppm; for Hatching rate (%), Replicate 1 / Hatching rate (%), Replicate 2 / Hatching rate (%), Replicate 3 / Number of unhatched larvae 4 days after insecticide delivery, Replicate 1 / Number of unhatched larvae 4 days after insecticide delivery, Replicate 2 / Number of unhatched larvae 4 days after insecticide delivery, Replicate 3: Spodoptera litura eggs; for Hatching rate (%), Replicate 1 / Hatching rate (%), Replicate 2 / Hatching rate (%), Replicate 3: 4 days after delivery; for Number of unhatched larvae 4 days after insecticide delivery, Replicate 1 / Number of unhatched larvae 4 days after insecticide delivery, Replicate 2 / Number of unhatched larvae 4 days after insecticide delivery, Replicate 3: soaked 10 minutes
# How it was run: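 Egg pieces of about 60 eggs were soaked 10 min in test agent at 500 ppm, blotted, then held singly at 24±1 °C, 80±10% RH, 12:12 L:D. Hatched and unhatched eggs were counted on day 4 to give hatching rate and control effect; 3 replicates.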
# [2] = system: eggs of Tetranychus urticae; experiment: Effect on hatching of eggs of Tetranychus urticae, leaf disc method; format: in vivo; conditions: 5 ppm; for Hatching rate (%): 5 days after insecticide delivery
# How it was run: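 Twenty adult female Tetranychus urticae mites were placed on 2.0 cm Vicia faba leaf discs over wetted filter paper in lidded dishes kept moist, and removed within 36 hours. Eggs on each disc were counted under a microscope. The egg-bearing discs were dipped for 10 seconds in a compound solution at 5 ppm or in clear water, then kept moist, and hatching was checked five days after treatment.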
# eggs of Thrips = experiment: Effect on hatching of eggs of Thrips, leaf disc method; format: in vivo; conditions: 100 ppm; for Hatching rate (%): 5 days after insecticide delivery
# How it was run: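 Thrip egg hatching was tested by the leaf disc method on Vicia faba discs 2.0 cm across, placed over wetted filter paper. Egg numbers on each disc were counted under a microscope before treatment. Discs were then dipped for 10 seconds in clean water or a compound solution at 100 ppm. They were kept moist under normal conditions, and hatching was surveyed five days after insecticide delivery.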
# eggs of Panonychus citri = experiment: Effect on hatching of eggs of Panonychus citri, leaf disc method; format: in vivo; conditions: 1 ppm; for Hatching rate (%), Replicate 1 / Hatching rate (%), Replicate 2 / Hatching rate (%), Replicate 3 / Number of hatched larvae 5 days after insecticide delivery, Replicate 1 / Number of hatched larvae 5 days after insecticide delivery, Replicate 2 / Number of hatched larvae 5 days after insecticide delivery, Replicate 3: Panonychus citri eggs; for Hatching rate (%), Replicate 1 / Hatching rate (%), Replicate 2 / Hatching rate (%), Replicate 3: 5 days after delivery; for Number of hatched larvae 5 days after insecticide delivery, Replicate 1 / Number of hatched larvae 5 days after insecticide delivery, Replicate 2 / Number of hatched larvae 5 days after insecticide delivery, Replicate 3: leaf disc
# [3] = Replicate 1, listed as 19-(S, S)
# [4] = Replicate 2, listed as 19-(S, S)
# [5] = Replicate 3, listed as 19-(S, S)
# [6] = Replicate 1, listed as 19′-(R, R)
# [7] = Replicate 2, listed as 19′-(R, R)
compound,measurement,setting,value
"CCC(COc1ccc(Cl)cc1Cl)OS(=O)OCCF [19-(S,S)]",inhibitory rate against Magnaporthe grisea (in words),Magnaporthe grisea,strong inhibitory rate
same,Average antifungal rate (%),Magnaporthe grisea,84.69%
same,"Antifungal rate of Magnaporthe grisea (%), Replicate 1",Magnaporthe grisea,86.52%
same,"Antifungal rate of Magnaporthe grisea (%), Replicate 2",Magnaporthe grisea,83.17%
same,"Antifungal rate of Magnaporthe grisea (%), Replicate 3",Magnaporthe grisea,84.38%
same,"Hatching rate (%), Replicate 1","[1]; listed as 19-(S, S)",50.00%
same,"Hatching rate (%), Replicate 2","[1]; listed as 19-(S, S)",51.72%
same,"Hatching rate (%), Replicate 3","[1]; listed as 19-(S, S)",50.91%
same,"Number of unhatched larvae 4 days after insecticide delivery, Replicate 1","[1]; listed as 19-(S, S)",30
same,"Number of unhatched larvae 4 days after insecticide delivery, Replicate 2","[1]; listed as 19-(S, S)",28
same,"Number of unhatched larvae 4 days after insecticide delivery, Replicate 3","[1]; listed as 19-(S, S)",27
same,Hatching rate (%),[2]; [3],17.48%
same,Hatching rate (%),[2]; [4],14.74%
same,Number of hatched larvae 5 days after insecticide delivery,[2]; [3],18
same,Number of hatched larvae 5 days after insecticide delivery,[2]; [4],14
same,Hatching rate (%),eggs of Thrips; [3],14.4%
same,Hatching rate (%),eggs of Thrips; [4],13.89%
same,Hatching rate (%),eggs of Thrips; [5],11.46%
same,Number of hatched larvae 5 days after insecticide delivery,eggs of Thrips; [3],18
same,Number of hatched larvae 5 days after insecticide delivery,eggs of Thrips; [4],15
same,Number of hatched larvae 5 days after insecticide delivery,eggs of Thrips; [5],11
same,"Hatching rate (%), Replicate 1","eggs of Panonychus citri; listed as 19-(S, S)",10.08%
same,"Hatching rate (%), Replicate 2","eggs of Panonychus citri; listed as 19-(S, S)",9.90%
same,"Hatching rate (%), Replicate 3","eggs of Panonychus citri; listed as 19-(S, S)",10.47%
same,"Number of hatched larvae 5 days after insecticide delivery, Replicate 1","eggs of Panonychus citri; listed as 19-(S, S)",12
same,"Number of hatched larvae 5 days after insecticide delivery, Replicate 2","eggs of Panonychus citri; listed as 19-(S, S)",10
same,"Number of hatched larvae 5 days after insecticide delivery, Replicate 3","eggs of Panonychus citri; listed as 19-(S, S)",9
"CCC(COS(=O)OCCF)Oc1ccc(Cl)cc1Cl [19′-(R,R)]",inhibitory rate against Magnaporthe grisea (in words),Magnaporthe grisea,strong inhibitory rate
same,"Antifungal rate of Magnaporthe grisea (%), Replicate 1",Magnaporthe grisea,96.97%
same,"Antifungal rate of Magnaporthe grisea (%), Replicate 2",Magnaporthe grisea,97.35%
same,"Antifungal rate of Magnaporthe grisea (%), Replicate 3",Magnaporthe grisea,97.26%
same,inhibitory activity on the hatching of eggs of Spodoptera litura (in words),[1],good inhibitory activities
same,"Hatching rate (%), Replicate 1","[1]; listed as 19′-(R, R)",17.54%
same,"Hatching rate (%), Replicate 2","[1]; listed as 19′-(R, R)",16.95%
same,"Hatching rate (%), Replicate 3","[1]; listed as 19′-(R, R)",19.12%
same,"Number of unhatched larvae 4 days after insecticide delivery, Replicate 1","[1]; listed as 19′-(R, R)",47
same,"Number of unhatched larvae 4 days after insecticide delivery, Replicate 2","[1]; listed as 19′-(R, R)",49
same,"Number of unhatched larvae 4 days after insecticide delivery, Replicate 3","[1]; listed as 19′-(R, R)",55
same,inhibitory activity on the hatching of eggs of Tetranychus urticae (in words),[2],strong inhibitory activities
same,Hatching rate (%),[2]; [6],0.00%
same,Hatching rate (%),[2]; [7],0.00%
same,Number of hatched larvae 5 days after insecticide delivery,[2]; [6],0
same,Number of hatched larvae 5 days after insecticide delivery,[2]; [7],0
same,inhibitory activity on the hatching of eggs of Thrips (in words),eggs of Thrips,strong inhibitory activities
same,Hatching rate (%),eggs of Thrips; [6],0.00%
same,Hatching rate (%),eggs of Thrips; [7],0.00%
same,Hatching rate (%),eggs of Thrips; Replicate 3,0.00%
same,Number of hatched larvae 5 days after insecticide delivery,eggs of Thrips; [6],0
same,Number of hatched larvae 5 days after insecticide delivery,eggs of Thrips; [7],0
same,Number of hatched larvae 5 days after insecticide delivery,eggs of Thrips; Replicate 3,0
same,inhibitory effect on the hatching of eggs of Panonychus citri (in words),eggs of Panonychus citri,good inhibitory effects
same,"Hatching rate (%), Replicate 1",eggs of Panonychus citri,0.00%
same,"Hatching rate (%), Replicate 2",eggs of Panonychus citri,0.00%
same,"Hatching rate (%), Replicate 3",eggs of Panonychus citri,0.00%
same,"Number of hatched larvae 5 days after insecticide delivery, Replicate 1",eggs of Panonychus citri,0
same,"Number of hatched larvae 5 days after insecticide delivery, Replicate 2",eggs of Panonychus citri,0
same,"Number of hatched larvae 5 days after insecticide delivery, Replicate 3",eggs of Panonychus citri,0
"CC[C@H](COS(=O)OCCF)Oc1ccc(Cl)cc1Cl (stereo partly drawn) [19′-(R,S)]",inhibitory rate against Magnaporthe grisea (in words),Magnaporthe grisea,strong inhibitory rate
same,Average antifungal rate (%),Magnaporthe grisea,97.19% and 86.12%
same,"Antifungal rate of Magnaporthe grisea (%), Replicate 1",Magnaporthe grisea,85.69%
same,"Antifungal rate of Magnaporthe grisea (%), Replicate 2",Magnaporthe grisea,86.41%
same,"Antifungal rate of Magnaporthe grisea (%), Replicate 3",Magnaporthe grisea,86.27%
same,"Hatching rate (%), Replicate 1",[1],51.67%
same,"Hatching rate (%), Replicate 2",[1],50.77%
same,"Hatching rate (%), Replicate 3",[1],50.00%
same,"Number of unhatched larvae 4 days after insecticide delivery, Replicate 1",[1],30
same,"Number of unhatched larvae 4 days after insecticide delivery, Replicate 2",[1],32
same,"Number of unhatched larvae 4 days after insecticide delivery, Replicate 3",[1],27
same,Hatching rate (%),[2]; Replicate 1,12.66%
same,Hatching rate (%),[2]; Replicate 2,13.25%
same,Number of hatched larvae 5 days after insecticide delivery,[2]; Replicate 1,10
same,Number of hatched larvae 5 days after insecticide delivery,[2]; Replicate 2,11
same,Hatching rate (%),eggs of Thrips; Replicate 1,9.02%
same,Hatching rate (%),eggs of Thrips; Replicate 2,9.18%
same,Hatching rate (%),eggs of Thrips; Replicate 3,8.74%
same,Number of hatched larvae 5 days after insecticide delivery,eggs of Thrips; Replicate 1,12
same,Number of hatched larvae 5 days after insecticide delivery,eggs of Thrips; Replicate 2,9
same,Number of hatched larvae 5 days after insecticide delivery,eggs of Thrips; Replicate 3,9
same,"Hatching rate (%), Replicate 1",eggs of Panonychus citri,10.43%
same,"Hatching rate (%), Replicate 2",eggs of Panonychus citri,10.42%
same,"Hatching rate (%), Replicate 3",eggs of Panonychus citri,9.57%
same,"Number of hatched larvae 5 days after insecticide delivery, Replicate 1",eggs of Panonychus citri,12
same,"Number of hatched larvae 5 days after insecticide delivery, Replicate 2",eggs of Panonychus citri,10
same,"Number of hatched larvae 5 days after insecticide delivery, Replicate 3",eggs of Panonychus citri,9
